Measurements published in publication PMC7177456, “A Peptidomimetic Fluorescent Probe to Detect the Trypsin β2 Subunit of the Human 20S Proteasome” (International Journal of Molecular Sciences, 2020).

Key:
[1] = target: T1, human 20S proteasome, trypsin-like (β2) subunit (Homo sapiens, UniProt P49720+Q99436); assay: Kinetic parameters of substrate 1 with human 20S proteasome (allosteric fit); format: biochemical; settings: for kcat/Km: calculated from the kcat and Km values; for Km / kcat: 20S proteasome 1.07 × 10^−9 M
T1 construct: purchased Boston Biochem (Cambridge, MA, USA)
Protocol: For enzymatic studies, the human 20S proteasome, 26S proteasome, and 20S immunoproteasome were purchased from Boston Biochem (Cambridge, MA, USA). The 20S proteasome concentration for library deconvolution was in the nanomolar range, and this proteasome entity was used for the main study. Deconvolution of the peptide libraries was performed using the iterative solution method. Dimethyl sulfoxide (DMSO) was used as a solvent for preparation of the stock solution (5 mg/mL) for each lyophilized sub-library. This stock solution was diluted ten times using an assay buffer (50 mM Tris/HCl buffer (pH 8.2)) for the 20S and 20Si proteasome, and for 26S, the buffer was supplemented with 40 mM KCl, 2 mM EDTA, 1 mM DTT, 100 µM ATP, and 50 µg/mL bovine serum albumin (BSA). The volume composition of each well of the 96-well plate was: 20 µL library, 160 µL assay buffer, and 20 µL 20S proteasome solution at a concentration of 1.07 × 10^−9 M. Absorbance or fluorescence measurements were performed on a FluoroStar OMEGA multimode microplate reader (BMG, Ortenberg, Germany). Absorbance increases were monitored at 410 nm. The excitation and emission wavelengths were 320 and 450 nm respectively, for the ABZ/ANB. Enzymatic hydrolysis of the peptide was performed in the assay buffer at 37 °C and continued over 60 min.
The procedures to determine the kinetic constants Km and kcat are described below. Increasing concentrations of substrate 1 ranged from 1 × 10^−6 to 2 × 10^−5 M. In parallel, a kinetic assay with the artificial activator SDS at 0.01% was also performed. The data were fitted to an allosteric plot using GraphPad prism v6.0 (GraphPad Software Inc., La Jolla, CA, USA). The specificity constants (kcat/ Km) were calculated from the kcat and Km values. Measurements were performed using a 20S proteasome concentration of 1.07 × 10^−9 M. Three to five measurements were performed for each compound dilution (the systematic error, defined as the standard deviation, never surpassed 20%). The initial hydrolysis rates were used as the amount of enzymatic activity for the tested compounds. All kinetic study details and kinetic parameters have been described elsewhere.

20S proteasome [2] = assay: Inhibitory studies: cleavage of substrate 1 in the presence of selective proteasome inhibitors; format: biochemical, human; settings: deduced from cleavage with selective inhibitors
Text: A black, 96-well flat-bottomed microplate (Brand GMBH, Wertheim, Germany) was used for the inhibitory studies. Two inhibitors, carfilzomib (a selective inhibitor of the β5 subunit of the 20S proteasome) and epoxomicin, were purchased from Merck (Darmstadt, Germany) and used at final concentrations of 1.15 × 10^−6 M and 5.0 × 10^−5 M, respectively. The β2 inhibitor, PR671A [20], and the β1 inhibitor, NCOO1 [21], were used at a concentration of 5 × 10^−6 M. These reagents were kindly provided by Alexei Kisselev from Dartmouth University (Dartmouth, NH, USA). The concentration of 20S proteasome was 1.07 × 10^−9 M. The buffered proteasome solution was mixed with 10 µL inhibitor solution. This mixture was incubated for 30 min at 37 °C. After this period, the substrate solution was added at a concentration of 1.34 × 10^−5 M, and the fluorescence was measured over time at 320 nm excitation and 450 nm emission wavelengths. All measurements were performed in triplicate.

20S proteasome [3] = assay: Titration: 20S proteasome assay detection limit; format: biochemical, human; settings: substrate 1.34 × 10^−5 M; 20S proteasome 0.05 to 2 nM; 37 °C, 30 min; 320/450 nm; triplicate
Protocol: A total of 160 µL assay buffer was added to each well of the 96-well plate, containing a constant substrate concentration (1.34 × 10^−5 M) (20 µL), followed by 20 µL of the 20S proteasome, with concentrations ranging from 0.05 to 2 nM. In total, seven different concentrations were used. The excitation and emission wavelengths were 320 and 450 nm, respectively. Enzymatic hydrolysis of the peptide was performed in the previously described buffer at 37 °C and continued over 30 min. A linear fragment of the curve was chosen, and the slope was calculated for each system. All measurements were performed in triplicate.

20S proteasome [4] = assay: Proteolytic cleavage pattern by RP-HPLC; format: biochemical, human; settings: substrate 3.1 × 10^−6 M, 20S proteasome 1.07 × 10^−9 M, one hour
Protocol: For each sample of the diluted substrate (concentration; 3.1 × 10^−6 M), an appropriate amount of proteasome (1.07 × 10^−9 M) was added, and the solution was incubated for 5, 30, and 60 min. The proteolytic reaction was monitored by RP-HPLC.

20S proteasome [5] = assay: Library deconvolution, cleavage rates of sublibraries and individual compounds; format: biochemical, human; settings: P4 Dap(O2(Cbz)), P3 Dap(GO1); 3.4 × 10^−6 M; 20S proteasome 1.46 × 10^−9 M; pH 8.2, 37 °C
Protocol: Deconvolution of the synthesized library with a fixed Arg in position P1 and diversified by DAPEG residues at positions P2–P4 was performed in a solution using a mix and split approach. […] Since the proteasome structure has three pairs of catalytically active subunits with distinct specificities (chymotrypsin, trypsin, and caspase), we repeated these experiments in the presence of a trypsin subunit inhibitor (PR671A). In effect, a 96% reduction in activity was recorded. This observation allowed us to proceed with screening at position P3 (Figure 2A).
Figure 2 Deconvolution of the library (at an average concentration of 3.4 × 10^−6 M) with the general formula ABZ–X4–X3–X2–Arg–ANB–NH2 against the 20S proteasome (1.46 × 10^−9 M). (A) Cleavage rates of individual sublibraries recorded for position X4; (B) Cleavage rates of individual sublibraries recorded for position X3; (C) Cleavage rates of individual compounds modified in position X2. […]
For enzymatic studies, the human 20S proteasome, 26S proteasome, and 20S immunoproteasome were purchased from Boston Biochem (Cambridge, MA, USA). […] The volume composition of each well of the 96-well plate was: 20 µL library, 160 µL assay buffer, and 20 µL 20S proteasome solution at a concentration of 1.07 × 10^−9 M. Absorbance or fluorescence measurements were performed on a FluoroStar OMEGA multimode microplate reader (BMG, Ortenberg, Germany). […]

[6] = in the presence of artificial activator SDS 0.01%, pH 8.2, 37 °C

Q: How did the kcat/Km ([1]; in the presence of artificial activator SDS 0.01%) turn out when “ABZ–Dap(O2(Cbz))–Dap(GO1)–Dap(O2(Cbz))–Arg–ANB–NH2 [substrate 1]” was run?
A: Its kcat/Km is 3.23e+07 M⁻¹ s⁻¹.

Q: And the Km [1, 6]?
A: The Km was 6.84 ± 0.12 µM.

Q: What about the kcat [1, 6] of the same substance?
A: Its kcat is 221 ± 18 s⁻¹.

Q: What about the kcat ([1]; substrate alone, without SDS, 50 mM Tris/HCl pH 8.2, 37 °C) of the same substance?
A: Its kcat is 245 ± 21 s⁻¹.

Q: What about the Km ([1]; substrate alone, without SDS, 50 mM Tris/HCl pH 8.2, 37 °C, substrate 1 × 10^−6 to 2 × 10^−5 M, ABZ/ANB fluorescence 320/450 nm, three to five measurements) of the same substance?
A: The Km was 3.22 ± 0.02 µM.

Q: And the kcat/Km ([1]; substrate alone, without SDS)?
A: Its kcat/Km is 7.61e+07 M⁻¹ s⁻¹.

Q: And the “type of cleavage kinetics” value ([1]; substrate alone, characteristic for allosteric enzymes)?
A: Its value is “sigmoidal kinetics”.

Q: And the “sub-site selectivity of hydrolysis” value (20S proteasome [2])?
A: Its value is “hydrolyzed exclusively by the β2 sub-site”.

Q: And the “20S proteasome assay detection limit” value (20S proteasome [3])?
A: Its value is 10^−11 M.

Q: What about the cleavage products (20S proteasome [4]) of the same substance?
A: The cleavage products was “two products with retention times corresponding to ABZ–Dap(O2(Cbz))–Dap(GO1)–Dap(O2(Cbz))–Arg–OH (2) (tR = 18.24) and ABZ–NH2 (tR = 7.89)”.

Q: And the “cleavage rate, position P2 (X2), individual compounds” value (20S proteasome [5])?
A: The value was “significantly higher compared to the rates of the other tested systems”.
